Data on four compounds can be found in patent US4886810A, “Quinoline derivatives, pharmaceutical composition and method of use” (Dainippon Pharmaceutical Co., Ltd., priority 1986, dated 1989).

Each structure is given as a SMILES string. Converted amounts (≈) assume the structure as drawn. Like-named read-outs stand apart in the source and are kept apart here. Bounds are passed on as bounds.

One data set concerns E. coli P-51213. Nature of the data set: microbe, parasite or virus in culture. It is filed as cell-based.
In the next data set the test system is S. pyogenes Cook. Nature of the data set: microbe, parasite or virus in culture. It is filed as cell-based.
Another data set concerns S. aureus No. 50774. Nature of the data set: microbe, parasite or virus in culture. Format: cell-based.
Another data set has as its system S. aureus No. 80. Description: microbe, parasite or virus in culture. Format: cell-based.
The next data set deals with P. aeruginosa 12. Description: microbe, parasite or virus in culture. Format: cell-based.
The test system of data set [1] is Staphylococcus aureus 50774. Description: animal or person. Format: in vivo. As to conditions: for ED50: Staphylococcus aureus, 50774, in Mus musculus, po, 336 h, read-out: median effective dose (ED50).
Another data set relates to M. lacunata P-7102. Nature of the data set: microbe, parasite or virus in culture. It is filed as cell-based.
The next data set has as its system S. pyogenes A 65. Description: microbe, parasite or virus in culture. It is filed as cell-based.
In another data set the test system is S. aureus 209P JC-1. Description: microbe, parasite or virus in culture. It is filed as cell-based. As to conditions: Staphylococcus aureus, 20 h, read-out: minimum inhibitory concentrations (MIC).
The test system of a further data set is Flavobacterium sp P-7201. Description: microbe, parasite or virus in culture. Format: cell-based. Conditions: P7201, 20 h, read-out: minimum inhibitory concentrations (MIC).
The subject of data set [2] is Pseudomonas aeruginosa 12. Nature of the data set: animal or person. As to conditions: for ED50: Pseudomonas aeruginosa, 12, in Mus musculus, po, 168 h, 7 days, read-out: median effective dose (ED50); for efficacy against systemic infection by P. aeruginosa 12 compared with Compound A (in words): in vivo. Format: in vivo.
A further data set concerns B. abortus kusayanagi. Description: microbe, parasite or virus in culture. It is filed as cell-based. Conditions: Brucella abortus, 20 h; read-out: minimum inhibitory concentrations (MIC).
Data set [3] concerns Streptococcus pyogenes A65. Description: animal or person. It is filed as in vivo. Conditions: A65, in Mus musculus, po, 168 h, 7 days, read-out: median effective dose (ED50).
The test system of the next data set is M. bovis P-7101. Description: microbe, parasite or virus in culture. Conditions: Mycobacterium tuberculosis variant bovis, P7101, 20 h; read-out: minimum inhibitory concentrations (MIC). It is filed as cell-based.
A further data set deals with male mice (ddY). Nature of the data set: Acute oral toxicity in mice (Table 3). As to conditions: mouse, in vivo.
Data set [4] has as its system Gram-positive and Gram-negative bacteria. Description: In vivo efficacy against systemic infections, overall. As to conditions: for therapeutic effect on infections by Gram-positive and Gram-negative bacteria (in words): in vivo; for therapeutic effect compared with Compounds A and B (in words): versus Compounds A and B, systemic infections, mice. As for the experimental part:
Compounds were each dissolved in deionized water. Each of the solutions was orally administered to mice infected with each of the test organisms under the conditions shown hereinbelow, and the median effective dose (ED 50) was calculated by […]. The numerals in the table show ED50 (mg/kg) value, calculated for free base.
Mice: Male mice (ddY-S) weighing about 20 g Infection:
Twice, immediately and 6 hours after infection.
For 14 days in case of Staphylococcus aureus 50774.
For 7 days in case of other organisms.

The nature of data set [5]: in vivo. Conditions: mouse, po.
For data set [6], the system named is Gram-positive and Gram-negative bacteria. Nature of the data set: In vitro antibacterial activity, overall. Format: cell-based. Here is the method: The numbers in the table show minimum inhibitory concentrations (MIC) (μg/ml), calculated for free base. The minimum inhibitory concentration was determined by the twofold agar-dilution method, which was recommended by Japan Society of Chemotherapy (Chemotherapy, 29(1), (1981)), using Muller-Hinton agar. One loopful of an overnight culture of test organisms in Mueller-Hinton broth was inoculated onto 10-ml drug-containing agar layers in petri dishes. Bacterial inocula contained approximately 10^6 colonyl-forming units. Bacterial growth was observed after 20-hour incubation at 37° C. The MIC was defined as the lowest drug concentration which prevented visible bacterial growth.

The nature of data set [7]: in vivo. Further details: species or system mice. As to conditions: mouse; for dose excreted at 24 h: 5 mg/kg.
The mark [8] stands for this setting: Escherichia coli, P51213, 20 h; read-out: minimum inhibitory concentrations (MIC).
Where [9] appears, read: Streptococcus pyogenes, 20 h; read-out: minimum inhibitory concentrations (MIC).
The mark [10] stands for this setting: Staphylococcus aureus, NO.50774, 20 h; read-out: minimum inhibitory concentrations (MIC).
Setting [11] is: Staphylococcus aureus, NO.80, 20 h; read-out: minimum inhibitory concentrations (MIC).
Where [12] appears, read: Pseudomonas aeruginosa, 12, 20 h; read-out: minimum inhibitory concentrations (MIC).
Where [13] appears, read: 20 h; read-out: minimum inhibitory concentrations (MIC).
Setting [14] is: Streptococcus pyogenes, A65, 20 h; read-out: minimum inhibitory concentrations (MIC).

In general, ED50 refers to the dose at which the effect has come halfway, by size or by number of responders. With `Cl.O=C(O)c1cn(C2CC2)c2cc(N3CCNCC3)c(F)cc2c1=O` [Compound B, 1-cyclopropyl-6-fluoro-7-(1-piperazinyl)-1,4-dihydro-4-oxoquinoline-3carboxylic acid hydrochloride, reference compound], the MIC in the data set on E. coli P-51213 (Escherichia coli, P51213, 20 h, read-out: minimum inhibitory concentrations (MIC)) turned out to be 0.05 µg/mL; in the data set on S. pyogenes Cook (Streptococcus pyogenes, 20 h, read-out: minimum inhibitory concentrations (MIC)) it was 0.2 µg/mL; in the data set with S. aureus No. 50774 (Staphylococcus aureus, NO.50774, 20 h, read-out: minimum inhibitory concentrations (MIC)) it was 0.1 µg/mL; in the data set on S. aureus No. 80 (Staphylococcus aureus, NO.80, 20 h, read-out: minimum inhibitory concentrations (MIC)), 0.39 µg/mL; in the data set with P. aeruginosa 12 (Pseudomonas aeruginosa, 12, 20 h, read-out: minimum inhibitory concentrations (MIC)) it was 0.1 µg/mL; in the data set on M. lacunata P-7102 (20 h, read-out: minimum inhibitory concentrations (MIC)) it was 6.25 µg/mL. The MIC with S. pyogenes A 65 (Streptococcus pyogenes, A65, 20 h, read-out: minimum inhibitory concentrations (MIC)) is 0.2 µg/mL; with S. aureus 209P JC-1, 0.1 µg/mL; with Flavobacterium sp P-7201 it was 0.39 µg/mL. In addition, the ED50 in data set [1] came out at 11.7 mg/kg.

In the case of `CCn1cc(C(=O)O)c(=O)c2c(N)c(F)c(N3CCNCC3)c(F)c21` [Compound A, 5-amino-1-ethyl-6,8-difluoro-7-(1piperazinyl)-1,4-dihydro-4-oxoquinoline-3-carboxylic acid, reference compound], the MIC in the data set with E. coli P-51213 (setting [8]) was found to be 0.39 µg/mL (≈ 1.11 µM); with S. pyogenes Cook (setting [9]), 6.25 µg/mL (≈ 17.7 µM); with S. aureus No. 50774 (setting [10]) it was 0.2 µg/mL (≈ 0.568 µM); with S. aureus No. 80 (setting [11]), 0.2 µg/mL (≈ 0.568 µM); with P. aeruginosa 12 (setting [12]), 0.78 µg/mL (≈ 2.21 µM); in the data set on M. lacunata P-7102 (setting [13]), 6.25 µg/mL (≈ 17.7 µM). The MIC came to 12.5 µg/mL (≈ 35.5 µM) with S. pyogenes A 65 (setting [14]); 3.13 µg/mL (≈ 8.88 µM) in the data set with B. abortus kusayanagi; 0.2 µg/mL (≈ 0.568 µM) in the data set with S. aureus 209P JC-1; 0.78 µg/mL (≈ 2.21 µM) in the data set on Flavobacterium sp P-7201; 3.13 µg/mL (≈ 8.88 µM) in the data set on M. bovis P-7101. Moreover, the values for the ED50 in data set [2] and in data set [3] were 15 mg/kg and greater than 25 mg/kg, respectively.

Broadly, the LD50 is the dose expected to kill half of the subjects tested. Take `CC1(N)CCN(c2c(F)c(N)c3c(=O)c(C(=O)O)cn(C4CC4)c3c2F)C1` (centres unmarked) [Compound 3, 5-amino-7-(3-amino-3-methyl-1-pyrrolidinyl)-1-cyclopropyl-6,8-difluoro-1,4-dihydro-4-oxoquinoline-3-carboxylic acid]: the MIC in the data set with E. coli P-51213 (setting [8]) came out at 0.05 µg/mL (≈ 0.132 µM); with S. pyogenes Cook (setting [9]), 0.1 µg/mL (≈ 0.264 µM); in the data set on S. aureus No. 50774 (setting [10]), 0.025 µg/mL (≈ 0.0661 µM); with S. aureus No. 80 (setting [11]) it was 0.0063 µg/mL (≈ 0.0166 µM); with P. aeruginosa 12 (setting [12]), 0.2 µg/mL (≈ 0.529 µM); in the data set on M. lacunata P-7102 (setting [13]) it was 0.78 µg/mL (≈ 2.06 µM). Further, the MIC in the data set on S. pyogenes A 65 (setting [14]) was found to be 0.1 µg/mL (≈ 0.264 µM); in the data set with B. abortus kusayanagi it was 0.39 µg/mL (≈ 1.03 µM); in the data set with S. aureus 209P JC-1, 0.025 µg/mL (≈ 0.0661 µM); in the data set on Flavobacterium sp P-7201, 0.1 µg/mL (≈ 0.264 µM); in the data set with M. bovis P-7101, 0.2 µg/mL (≈ 0.529 µM). In addition, the results for the ED50 in data set [2] and in [3] were 1.68 mg/kg and 9.14 mg/kg, respectively. For the same compound, the “efficacy against systemic infection by P. aeruginosa 12 compared with Compound A (in words)” value in data set [2] is on record as “better efficacy”. For the same compound, the “toxicity (in words)” value with male mice (ddY) is given as “low oral toxicity”. In addition, the “therapeutic effect on infections by Gram-positive and Gram-negative bacteria (in words)” value in data set [4] was “potent therapeutic effects”. Moreover, the “therapeutic effect compared with Compounds A and B (in words)” value in [4] was “better therapeutic effects”. In the data set “in vivo [5]”, this compound gave an LD50 at 168 h greater than 2000 mg/kg. Besides, the “antibacterial activity against Gram-positive and Gram-negative bacteria (in words)” value in [6] was “very high antibacterial activities”.

Turning to `CC1CN(c2c(F)c(F)c3c(=O)c(C(=O)O)cn(C4CC4)c3c2F)CCN1` (centres unmarked) [Compound 1, 1-cyclopropyl-5,6,8-trifluoro-7-(3-methyl-1-piperazinyl)-1,4-dihydro-4-oxoquinoline-3-carboxylic acid], the MIC in the data set on E. coli P-51213 (setting [8]) was 0.1 µg/mL (≈ 0.262 µM); with S. pyogenes Cook (setting [9]), 1.56 µg/mL (≈ 4.09 µM); in the data set with S. aureus No. 50774 (setting [10]), 0.2 µg/mL (≈ 0.524 µM); in the data set on S. aureus No. 80 (setting [11]), 0.2 µg/mL (≈ 0.524 µM); in the data set on P. aeruginosa 12 (setting [12]), 0.78 µg/mL (≈ 2.05 µM); with M. lacunata P-7102 (setting [13]), 6.25 µg/mL (≈ 16.4 µM). The MIC in the data set on S. pyogenes A 65 (setting [14]) was found to be 1.56 µg/mL (≈ 4.09 µM); with B. abortus kusayanagi, 3.13 µg/mL (≈ 8.21 µM); in the data set on S. aureus 209P JC-1, 0.2 µg/mL (≈ 0.524 µM); with Flavobacterium sp P-7201, 0.39 µg/mL (≈ 1.02 µM); in the data set with M. bovis P-7101, 1.56 µg/mL (≈ 4.09 µM). Further, the figures for the ED50 in [2], in [1] (14 days) and in data set [3] were 2.46 mg/kg, 2.4 mg/kg and 17.3 mg/kg, respectively. In [2], the “efficacy against systemic infection by P. aeruginosa 12 compared with Compound A (in words)” value was “better efficacy”. The “efficacy against systemic infection by S. aureus 50774 compared with Compound B (in words)” value in [1] (in vivo) is reported as “better efficacy”. The dose excreted at 24 h was 14% in the data set “in vivo [7]” (feces, iv, read-out: Feces recovery); 22.3% in the data set “in vivo [7]” (feces, po, read-out: Feces recovery); 77.6% in the data set “in vivo [7]” (urine and feces, iv, read-out: Total recovery); 85.7% in the data set “in vivo [7]” (urine and feces, po, read-out: Total recovery); 63.6% in “in vivo [7]” (urine, iv, read-out: Urine recovery); 63.4% in the data set “in vivo [7]” (urine, po, read-out: Urine recovery). Further, the “absorbability (in words)” value in “in vivo [7]” (in vivo) is on record as “very good oral absorbability”. Moreover, in “in vivo [7]” (in vivo), the “metabolic stability (in words)” value is reported as “good metabolic stability”. The “total recovery (in words)” value in “in vivo [7]” (in vivo) is reported as “High total recovery”. Also, the “urinary excretion (in words)” value in the data set “in vivo [7]” (in vivo) is listed as “very good”. Moreover, the “metabolic stability and oral absorbability compared with Compound B (in words)” value in “in vivo [7]” (in vivo, po) was “superior to Compound B in metabolic stability and oral absorbability”. Also, the “toxicity (in words)” value in the data set on male mice (ddY) is reported as “low oral toxicity”. Moreover, in data set [4], the “therapeutic effect on infections by Gram-positive and Gram-negative bacteria (in words)” value is recorded as “potent therapeutic effects”. Also, the “therapeutic effect compared with Compounds A and B (in words)” value in [4] was “better therapeutic effects”. Also, in the data set “in vivo [5]”, the LD50 at 168 h is greater than 2000 mg/kg. For the same compound, in [6], the “antibacterial activity against Gram-positive and Gram-negative bacteria (in words)” value is reported as “very high antibacterial activities”.
